Columns and labels:
[1] = components of the nasal spray; cited from earlier work
[2] = pKa / protonation state of weak base; assay type: physicochemical; conditions: per the Henderson-Hasselbalch equation
Text: Nicotine is also known to be a weak base, pH 8.5. It has been shown in earlier in vitro studies that it could inhibit receptor mediated endosytosis. Due to the fact that it is a weak base it could penetrate cell membrane especially at pH near its isoelectric point and thus it may also effect glycosylation at Golgi compartment.

Compound	solubility in water [1]	deprotonated at physiological pH [2]
CCN(CCO)CCCC(C)Nc1ccnc2cc(Cl)ccc12 (stereo not shown) [Hydroxychloroquine]	at least 200 mg/mL	–
CCN(CC)CCCC(C)Nc1ccnc2cc(Cl)ccc12 (stereo not shown) [chloroquine]	–	about 10%
Aprotinin	> 10 mg/mL	–
Ivermectin	50 mg/mL	–
